Assays:
[1] = test system: HOP-62 Cell line; assay: MTT cell proliferation assay, HOP-62 Cell line; format: cell-based; conditions: Homo sapiens, 72 h, MTT; for viability at 0.01 µM: HOP-62, 0.01 μM; for viability at 0.1 µM: HOP-62, 0.1 μM; for viability at 2.5 µM: HOP-62, 2.5 μM; for viability at 5 µM: HOP-62, 5 μM; for viability at 10 µM: HOP-62, 10 μM
Experimental: (§1) 1. Protocol Followed for Anti Cancer Activity and Results, Cell Proliferation Assays: Cell lines used herein were purchased from NCCS (National Center for Cell Sciences) Pune, India. Invitro Activity was performed in NCL (National Chemical Laboratory) Pune. Each cell line was plated in 96-well microtiter plates (10,000 cells per well), and serial dilutions of indicated compounds were added. At the end of the incubation period (72 h at 37° C.), cell viability was determined by a tetrazolium dye, MTT (3-(4,5-dimethylthiazol-2-yl)-2,5-diphenyl tetrazolium bromide) (Promega, USA). The formazan crystals were dissolved in DMSO, and the absorbance at 600 nm was recorded using an ELISA plate reader. IC50 values were calculated using nonlinear regression and defined as the concentration needed for a 50% reduction in absorbance of treated versus untreated control cells.
By using the above procedure, the compounds of the invention were tested on HOP-62 Cell line and the results obtained are presented below in table 6, Refer FIG. 3.

[2] = test system: MCF-7 Cell line; assay: MTT cell proliferation assay, MCF-7 Cell line; format: cell-based; conditions: Homo sapiens, MCF7, 72 h, MTT; for viability at 0.01 µM: MCF-7, 0.01 μM; for viability at 0.1 µM: MCF-7, 0.1 μM; for viability at 2.5 µM: MCF-7, 2.5 μM; for viability at 5 µM: MCF-7, 5 μM; for viability at 10 µM: MCF-7, 10 μM
Experimental: as §1
Table 4 indicates anticancer activity against A549 Cell line. The Gefitinib was used as standard and % cell Viable was measured compared to control. The procedure used was MTT assay as mentioned. […] By using the above procedure, the compounds of the invention were tested on MCF-7 Cell line and the results obtained are presented below in table 5, Refer FIG. 2.

[3] = test system: A549 Cell line (Lung Cancer Cell line); assay: MTT cell proliferation assay, A549 Cell line; format: cell-based, human; conditions: Homo sapiens, 72 h, MTT; for viability at 0.01 µM: A549, 0.01 μM; for viability at 0.1 µM: A549, 0.1 μM; for viability at 2.5 µM: A549, 2.5 μM; for viability at 5 µM: A549, 5 μM; for viability at 10 µM: A549, 10 μM
Experimental: as §1
By using the above procedure, the compounds of the invention were tested on A549 Cell line and the results obtained are presented below in table 4, Refer FIG. 1.

[4] = test system: U87MG Cell line (Glioblastoma cell line); assay: MTT cell proliferation assay, U87MG Cell line; format: cell-based; conditions: Homo sapiens, U-87 MG, U87MG, 72 h, MTT
Experimental: as §1
By using the above procedure, the compounds of the invention were tested on U87MG Cell line (glioblastoma cell line) and the results obtained are presented below in table 8, Refer FIG. 5.

[5] = Log P (Table 3); format: physicochemical; conditions: no method given
[6] = test system: MDA-MB-436 Cell line; assay: MTT cell proliferation assay, MDA-MB-436 Cell line; format: cell-based; conditions: Homo sapiens, 72 h, MTT; for viability at 0.01 µM: MDA-MB-436, 0.01 μM; for viability at 0.1 µM: MDA-MB-436, 0.1 μM; for viability at 2.5 µM: MDA-MB-436, 2.5 μM; for viability at 5 µM: MDA-MB-436, 5 μM; for viability at 10 µM: MDA-MB-436, 10 μM
Experimental: as §1
By using the above procedure, the compounds of the invention were tested on MDA-MB-436 Cell line and the results obtained are presented below in table 7, Refer FIG. 4.

SMILES | viability at 0.01 µM [1] [%] | viability at 0.1 µM [1] [%] | viability at 2.5 µM [1] [%] | viability at 5 µM [1] [%] | viability at 10 µM [1] [%] | melting point [°C] | viability at 0.01 µM [2] [%] | viability at 0.1 µM [2] [%] | viability at 2.5 µM [2] [%] | viability at 5 µM [2] [%] | viability at 10 µM [2] [%] | viability at 0.01 µM [3] [%] | viability at 0.1 µM [3] [%] | viability at 2.5 µM [3] [%] | viability at 5 µM [3] [%] | viability at 10 µM [3] [%] | viability at 0.01 µM [4] [%] | viability at 0.1 µM [4] [%] | viability at 2.5 µM [4] [%] | viability at 5 µM [4] [%] | other results
Nc1nc(Nc2ccc([N+](=O)[O-])cc2)sc1-c1nc2ccccc2[nH]1 [Molecule S4-M3, 5-(1H-benzo[d]imidazol-2-yl)-N^2-(4-nitrophenyl)thiazole-2,4-diamine] | 99.6 | 94.4 | 90.8 | 90.8 | 88.8 | 260 to 262 | 99.6 | 92.4 | 90.8 | 84.8 | 72.8 | 97.6 | 90.4 | 81.8 | 71.8 | 62.8 | 96.6 | 82.4 | 69.8 | 55.8 | viability at 10 µM [4]: 30.8%; logP [5]: 3.32; viability at 0.01 µM [6]: 99.6%; viability at 0.1 µM [6]: 94.4%; viability at 2.5 µM [6]: 90.8%; viability at 5 µM [6]: 79.8%; viability at 10 µM [6]: 66.8%
COc1ccc(Nc2nc(N)c(-c3nc4ccccc4[nH]3)s2)cc1 [Molecule S4-M2, 5-(1H-benzo[d]imidazol-2-yl)-N^2-(4-methoxyphenyl)thiazole-2,4-diamine] | 99 | 93.5 | 85.5 | 77.5 | 75.5 | 224 to 226 | 97 | 95.5 | 95.5 | 90.5 | 84.5 | 95 | 89.5 | 75.5 | 60.5 | 51.5 | 93 | 86.5 | 79.5 | 68.5 | viability at 10 µM [4]: 55.5%; logP [5]: 2.11; viability at 0.01 µM [6]: 113%; viability at 0.1 µM [6]: 108%; viability at 2.5 µM [6]: 95.5%; viability at 5 µM [6]: 93.5%; viability at 10 µM [6]: 90.5%

— patent US9862712B2, “Benzimidazole based EGFR inhibitors” (COUNCIL OF SCIENTIFIC & INDUSTRIAL RESEARCH, priority 2014, dated 2018)
